# Source: patent US6930098B2, “Use of polysulphated cyclodextrins for treating osteoarthritis” (Universiteit Gent, priority 2000, dated 2005)
# Test system: Human articular chondrocytes
# Test: Synthesis of extracellular aggrecans by chondrocytes cultured in agarose gel (35S incorporation)
# Type: cell-based
# Details: 2.5 μg/ml, 48 hours with Na2 35SO4 after culturing for two weeks; for Amount of 35S-aggrecans associated with the cells: cell-associated fraction; for Amount of 35S-aggrecans in the medium: incubation medium fraction; for Amount of 35S-aggrecans in the interterritorial matrix: interterritorial matrix fraction
# Procedure: Evaluation of the in vitro effects of polysulphated cyclodextrins on the synthesis of extracellular aggrecans by chondrocytes.
# Human articular chondrocytes are isolated according to the methods described by W. T. Green Jr (Clin. Orthop., 1971, 75, 248-260) and K. E. Kuettner et al. (J. Cell. Biol., 1982, 93, 743-750).
# The chondrocytes are then cultured in agarose gel, in accordance with the method described by P. D. Benya et al. (Cell., 1982, 30, 215-224) and modified according to M. Cornelissen et al. (J. Tiss. Cult. Meth., 1993, 15, 139-146) and according to G. Verbruggen et al. (Clin. Exp. Rheumatol, 1990, 8, 371-378).
# Synthesis of aggrecans: This is measured by determining the incorporation of 35S, supplied by a radioactive precursor, sodium sulphate Na2^35SO4. After culturing for two weeks, 10 μCi/ml of the radio-labelled precursor are introduced into the culture medium for 48 hours, as well as the compounds under test (polysulphated α-, β- and γ-cyclodextrins) or the reference compounds (chondroitin sulphate and polysulphate) at an end concentration of 2.5 μg/ml.
# The newly synthesised ^35S-aggrecans accumulate partly in the intercellular agarose medium or are released into the incubation medium.
# At the end of the incubation period, the agarose gel is broken up mechanically and is then digested with 3 ml of a 50 U/ml solution of […] in a 0.067M phosphate buffer at pH 6.0, in the presence of proteinase inhibitors.
# The suspension thereby obtained is centrifuged; the supernatant, which comprises the ^35S-aggrecans of the interterritorial matrix, and the incubation medium, comprising the metabolites of ^35S-aggrecans released into the extracellular matrix, are combined for subsequent chromatography.
# The centrifuged pellet, comprising the chondrocytes and the ^35S-aggrecans associated therewith, is treated for 48 hours with 1 ml of a 4.0M solution of guanidinium chloride in a 0.05M acetate buffer at pH 5.8 comprising the proteinase inhibitors. The objective of this operation is to extract the ^35S-aggrecans associated with the cells. The solution obtained is centrifuged to separate the cells from the supernatant, which is separated off for subsequent chromatography. The chromatography operations on the various fractions obtained are carried out on Sephadex G25 gel in a pH 6.8 phosphate buffer containing 0.01M Na2SO4, so as to separate the ^35S-aggrecans from the free Na2^35SO4.
# The radioactivity of each of the macromolecular eluates obtained is measured and related to the number of chondrocytes contained in the initial culture and is expressed in terms of pg of SO4 incorporated into the aggrecans, per million chondrocytes and per hour.
substance,measurement,value
polysulphated α-cyclodextrin [α CD],Amount of 35S-aggrecans associated with the cells,"1315 pg of SO4 incorporated into the aggrecans, per million chondrocytes and per hour"
same,Amount of 35S-aggrecans in the medium,"1589 pg of SO4 incorporated into the aggrecans, per million chondrocytes and per hour"
same,Amount of 35S-aggrecans in the interterritorial matrix,"8036 pg of SO4 incorporated into the aggrecans, per million chondrocytes and per hour"
"chondroitin polysulphate [CPS, reference compound]",Amount of 35S-aggrecans associated with the cells,"1392 pg of SO4 incorporated into the aggrecans, per million chondrocytes and per hour"
same,Amount of 35S-aggrecans in the medium,"2519 pg of SO4 incorporated into the aggrecans, per million chondrocytes and per hour"
same,Amount of 35S-aggrecans in the interterritorial matrix,"6446 pg of SO4 incorporated into the aggrecans, per million chondrocytes and per hour"
"chondroitin sulphate [CS, reference compound]",Amount of 35S-aggrecans associated with the cells,"1373 pg of SO4 incorporated into the aggrecans, per million chondrocytes and per hour"
same,Amount of 35S-aggrecans in the medium,"2187 pg of SO4 incorporated into the aggrecans, per million chondrocytes and per hour"
same,Amount of 35S-aggrecans in the interterritorial matrix,"6589 pg of SO4 incorporated into the aggrecans, per million chondrocytes and per hour"
polysulphate β-cyclodextrin [β CD],Amount of 35S-aggrecans associated with the cells,"2262 pg of SO4 incorporated into the aggrecans, per million chondrocytes and per hour"
same,Amount of 35S-aggrecans in the medium,"1658 pg of SO4 incorporated into the aggrecans, per million chondrocytes and per hour"
same,Amount of 35S-aggrecans in the interterritorial matrix,"6232 pg of SO4 incorporated into the aggrecans, per million chondrocytes and per hour"
polysulphated γ-cyclodextrin [γ CD],Amount of 35S-aggrecans associated with the cells,"2907 pg of SO4 incorporated into the aggrecans, per million chondrocytes and per hour"
same,Amount of 35S-aggrecans in the medium,"3873 pg of SO4 incorporated into the aggrecans, per million chondrocytes and per hour"
same,Amount of 35S-aggrecans in the interterritorial matrix,"8232 pg of SO4 incorporated into the aggrecans, per million chondrocytes and per hour"
